Data published in the supplement of paper PMC10733146.

Assays:
Test in all cases: viability relative to DMSO control (fraction); higher = less drug effect (more viable cells)
Settings in all cases: 48 h
[1] = test system: primary T-NHL patient cells (S058)
How it was run: (§1)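 Cells were incubated for 48 h at 37 °C and 5% CO2 in RPMI-1640 with penicillin/streptomycin, L-glutamine and human serum, at 4 × 10^4 cells per well in 384-well plates with compounds pre-plated at five concentrations, one well each. These were primary mononuclear tumour cells, fresh or cryopreserved, Ficoll-isolated from blood or bone marrow or obtained from processed lymph node. Viability values are CellTiter-Glo luminescence relative to the median of 16 inner DMSO wells.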

[2] = test system: primary MCL patient cells (S041)
How it was run: as §1

[3] = test system: primary AML patient cells (S019)
How it was run: as §1

[4] = test system: primary CLL patient cells (S031)
How it was run: as §1

[5] = test system: primary MCL patient cells (S063)
How it was run: as §1

[6] = test system: primary AML patient cells (S006)
How it was run: as §1

[7] = test system: primary DLBCL patient cells (S049)
How it was run: as §1

[8] = test system: primary AML patient cells (S056)
How it was run: as §1

[9] = test system: primary ALL patient cells (S088)
How it was run: as §1

[10] = test system: primary FL patient cells (S087)
How it was run: as §1

[11] = test system: primary AML patient cells (S011)
How it was run: as §1

[12] = test system: primary DLBCL patient cells (S076)
How it was run: as §1

[13] = test system: primary AML patient cells (S079)
How it was run: as §1

[14] = test system: primary AML patient cells (S085)
How it was run: as §1

[15] = test system: primary FL patient cells (S022)
How it was run: as §1

[16] = test system: primary ALL patient cells (S048)
How it was run: as §1

[17] = test system: primary AML patient cells (S012)
How it was run: as §1

For Nc1nc(F)nc2c1ncn2[C@@H]1O[C@H](CO)[C@@H](O)[C@@H]1O [Fludarabine], the viability ([1]; 0.016 µM) was 1.15, the viability ([1]; 0.08 µM) was 1.05 and the viability ([1]; 0.4 µM) was 0.829. For the same compound, the viability ([1]; 2 µM) was 0.288, the viability ([1]; 10 µM) was 0.133 and the viability ([2]; 0.016 µM) was 1.05. For the same compound, the viability ([2]; 0.08 µM) was 1.01, the viability ([2]; 0.4 µM) was 0.993 and the viability ([2]; 2 µM) was 0.647. The viability ([2]; 10 µM) was 0.149, the viability ([3]; 0.016 µM) was 1.17 and the viability ([3]; 0.08 µM) was 0.967. For the same compound, the viability ([3]; 0.4 µM) was 0.605, the viability ([3]; 2 µM) was 0.301 and the viability ([3]; 10 µM) was 0.181. The viability ([4]; 0.016 µM) was 1.05, the viability ([4]; 0.08 µM) was 1.02 and the viability ([4]; 0.4 µM) was 0.779. For the same compound, the viability ([4]; 2 µM) was 0.276, the viability ([4]; 10 µM) was 0.0672 and the viability ([5]; 0.016 µM) was 1.03. It also gave a viability ([5]; 0.08 µM) of 1, a viability ([5]; 0.4 µM) of 0.983 and a viability ([5]; 2 µM) of 0.845. The viability ([5]; 10 µM) was 0.196, the viability ([6]; 0.016 µM) was 1.02 and the viability ([6]; 0.08 µM) was 0.929. For the same compound, the viability ([6]; 0.4 µM) was 0.529, the viability ([6]; 2 µM) was 0.115 and the viability ([6]; 10 µM) was 0.0573. It also gave a viability ([7]; 0.016 µM) of 1.12, a viability ([7]; 0.08 µM) of 1.11 and a viability ([7]; 0.4 µM) of 1.04. The viability ([7]; 2 µM) was 0.775, the viability ([7]; 10 µM) was 0.375 and the viability ([8]; 0.016 µM) was 1.3. It also gave a viability ([8]; 0.08 µM) of 0.88, a viability ([8]; 0.4 µM) of 0.725 and a viability ([8]; 2 µM) of 0.208. For the same compound, the viability ([8]; 10 µM) was 0.0833, the viability ([9]; 0.016 µM) was 1 and the viability ([9]; 0.08 µM) was 0.975. For the same compound, the viability ([9]; 0.4 µM) was 0.715, the viability ([9]; 2 µM) was 0.283 and the viability ([9]; 10 µM) was 0.2. For the same compound, the viability ([10]; 0.016 µM) was 1, the viability ([10]; 0.08 µM) was 0.979 and the viability ([10]; 0.4 µM) was 0.871. The viability ([10]; 2 µM) was 0.661, the viability ([10]; 10 µM) was 0.463 and the viability ([11]; 0.016 µM) was 0.942. It also gave a viability ([11]; 0.08 µM) of 0.773, a viability ([11]; 0.4 µM) of 0.543 and a viability ([11]; 2 µM) of 0.255. For the same compound, the viability ([11]; 10 µM) was 0.0686, the viability ([12]; 0.016 µM) was 1.05 and the viability ([12]; 0.08 µM) was 1.07. For the same compound, the viability ([12]; 0.4 µM) was 0.772, the viability ([12]; 2 µM) was 0.373 and the viability ([12]; 10 µM) was 0.203. It also gave a viability ([13]; 0.016 µM) of 1.05, a viability ([13]; 0.08 µM) of 1.01 and a viability ([13]; 0.4 µM) of 0.819. For the same compound, the viability ([13]; 2 µM) was 0.453, the viability ([13]; 10 µM) was 0.191 and the viability ([14]; 0.016 µM) was 1.02. The viability ([14]; 0.08 µM) was 1.05, the viability ([14]; 0.4 µM) was 0.561 and the viability ([14]; 2 µM) was 0.172. It also gave a viability ([14]; 10 µM) of 0.112, a viability ([15]; 0.016 µM) of 1.09 and a viability ([15]; 0.08 µM) of 1.01. The viability ([15]; 0.4 µM) was 0.916, the viability ([15]; 2 µM) was 0.757 and the viability ([15]; 10 µM) was 0.504. It also gave a viability ([16]; 0.016 µM) of 0.991, a viability ([16]; 0.08 µM) of 0.881 and a viability ([16]; 0.4 µM) of 0.337. It also gave a viability ([16]; 2 µM) of 0.0558, a viability ([16]; 10 µM) of 0.028 and a viability ([17]; 0.016 µM) of 1.02. It also gave a viability ([17]; 0.08 µM) of 0.979, a viability ([17]; 0.4 µM) of 0.987 and a viability ([17]; 2 µM) of 0.921. It also gave a viability ([17]; 10 µM) of 0.753.
